Tests used:
Format in all cases: cell-based
S. aureus = assay: Anti-microbial activity, inhibition zone, S. aureus; on Inhibition Zone(mm ± SD) S. aureus: test concentration or dose not given here
Procedure: (§1) All synthesized compounds were tested for their antimicrobial activities against five types of microorganisms, including gram-negative and positive bacteria and fungi. The gram-negative bacteria include E. coli and P. aeruginosa, while B. subtilis and S. aureus represented the gram-positive bacteria. C. albicans was the fungus used in the screening. […] In addition, the antibacterial activity of the Schiff bases seems to be insensitive to the position and the nature of the substituents. […] For the gram-positive bacteria, the antibacterial activity was more significant in Schiff base derivatives when compared to azo derivatives.

B. subtilis = assay: Anti-microbial activity, inhibition zone, B. subtilis; on Inhibition Zone(mm ± SD) Bacillus: test concentration or dose not given here; conditions: for Inhibition Zone(mm ± SD) Bacillus: Bacillus (B. subtilis)
Procedure: as §1

C. albicans = assay: Anti-microbial (antifungal) activity, inhibition zone, C. albicans; further: test concentration or dose not given here
Procedure: as §1

P. aeruginosa = assay: Anti-microbial activity, inhibition zone, P. aeruginosa; on Inhibition Zone(mm ± SD) P. aeruginosa: test concentration or dose not given here
Procedure: as §1

E. coli = assay: Anti-microbial activity, inhibition zone, E. coli; on Inhibition Zone(mm ± SD) E. coli: test concentration or dose not given here
Procedure: as §1

Row | Structure (SMILES) | Inhibition Zone(mm ± SD) S. aureus (S. aureus) | Inhibition Zone(mm ± SD) Bacillus (B. subtilis) | Inhibition Zone(mm ± SD) Candida (C. albicans) | Inhibition Zone(mm ± SD) P. aeruginosa (P. aeruginosa) | Inhibition Zone(mm ± SD) E. coli (E. coli) | growth inhibition against P. aeruginosa (in words) (P. aeruginosa) | antibacterial activity against E. coli (in words) (E. coli) | activity against S. aureus (in words) (S. aureus) | activity against B. subtilis (in words) (B. subtilis)
1 | Nc1nccs1 [Compound 1, 2-aminothiazole] | Nil | Nil | Nil | Nil | 9.8 ± 0.2 mm | – | – | – | –
2 | ClN=Nc1nccs1 [Compound 2, 2-(Chlorodiazenyl)Thiazole] | Nil | Nil | Nil | Nil | 10.15 ± 0.4 mm | – | – | – | –
3 | CC1=NNC(=O)C1N=Nc1nccs1 (stereo not drawn) [Compound 6, 3-methyl-4-(thiazol-2-yldiazenyl)-1H-pyrazol-5(4H)-one] | Nil | Nil | Nil | 16 mm | 22 ± 0.8 mm | showed growth inhibition | most potent antibacterial activity | – | –
4 | NC1=NNC(=O)C1N=Nc1nccs1 (stereo not drawn) [Compound 7, 3-amino-4-(thiazol-2-yldiazenyl)-1H-pyrazol-5(4H)-one] | 12.3 ± 0.9 mm | 8.6 ± 0.4 mm | 12 ± 0 mm | Nil | 16 ± 1.4 mm | – | – | showed activity | showed activity
5 | CC1=NN=C(C)C1N=Nc1nccs1 [Compound 8, (3,5-Dimethyl-4H-pyrazol-4-yl)-thiazol-2-yl-diazene] | Nil | 10.6 ± 0.4 mm | Nil | Nil | 20.6 ± 0.9 mm | – | – | – | –
6 | C(=Nc1nccs1)c1ccccc1 [Compound 9, N-(benzylidene)thiazol-2-amine] | Nil | Nil | Nil | 8 ± 0 mm | 8.8 ± 0.4 mm | showed growth inhibition | least potent | – | –
7 | Clc1ccc(C=Nc2nccs2)cc1 [Compound 10, N-(4-chlorobenzylidene)thiazol-2-amine] | Nil | Nil | Nil | Nil | 14.3 ± 0.4 mm | – | – | – | –
8 | O=[N+]([O-])c1ccccc1C=Nc1nccs1 [Compound 11, N-(2-nitrobenzylidene)thiazol-2-amine] | 10.6 ± 0.4 mm | 8.6 ± 0.9 mm | Nil | 11.8 ± 0.6 mm | 12.3 ± 0.9 mm | showed growth inhibition | – | exhibited activities | exhibited activities
9 | Oc1ccc(C=Nc2nccs2)cc1 [Compound 12, 4-((thiazol-2-ylimino)methyl)phenol] | 10.3 ± 0.7 mm | Nil | Nil | Nil | 13.3 ± 1.2 mm | – | – | – | –
10 | Oc1ccccc1C=Nc1nccs1 [Compound 13, 2-((thiazol-2-ylimino)methyl)phenol] | 9.6 ± 0.3 mm | 11.3 ± 0.4 mm | Nil | 9 ± 0.8 mm | 14.95 ± 0.5 mm | showed growth inhibition | – | exhibited activities | exhibited activities
11 | COc1ccc(C=Nc2nccs2)cc1 [Compound 14, N-(4-methoxybenzylidene)thiazol-2-amine] | Nil | 10.3 ± 0.4 mm | Nil | Nil | 12.3 ± 0.4 mm | – | – | – | –
12 | COc1ccccc1C=Nc1nccs1 [Compound 15, N-(2-methoxybenzylidene)thiazol-2-amine] | Nil | Nil | Nil | Nil | 12.6 ± 0.5 mm | – | – | – | –
13 | COc1ccc(C=Nc2nccs2)c(OC)c1 [Compound 16, N-(2,4-dimethoxy-benzylidene)-thiazol-2-yl-amine] | 13 ± 0.1 mm | 12.3 ± 0.4 mm | Nil | Nil | 13 ± 0.4 mm | – | – | exhibited activities | exhibited activities
14 | COc1cccc(C=Nc2nccs2)c1OC [Compound 17, N-(2,3-dimethoxybenzylidene)thiazol-2-amine] | 9.3 ± 0.4 mm | Nil | Nil | Nil | 10.95 ± 0.3 mm | – | – | – | –
15 | Cc1[nH]c2ccccc2c1C=Nc1nccs1 [Compound 18, N-((2-methyl-1H-indol-3-yl)methylene)thiazol-2-amine] | 11.3 ± 0.4 mm | 10 ± 0.2 mm | Nil | 14.6 ± 0.7 mm | 16.2 ± 0.9 mm | showed growth inhibition | – | – | –
